US11667730B2, “Oxime ester compound and photopolymerization initiator containing the same” (ADEKA CORPORATION, priority 2006, dated 2023)

Key:
[1] = Solubility of oxime ester compound in solvent; type: physicochemical; details: solvent CHN: cyclohexanone (footnote)
[2] = Solubility of oxime ester compound in solvent; type: physicochemical; details: solvent PGM-Ac: Propylene glycol-1-monomethyl ether-2-acetate
Description: When used as a photopolymerization initiator, they dissolve in propylene glycol-1-monomethyl ether-2-acetate or cyclohexanone as a solvent to a concentration of 1% by mass or higher, to satisfy the requirement as a photopolymerization initiator. The solubility measurement is preferably made at 20° to 30° C.

Row | SMILES | Solubility CHN [1] | Solubility PGM-Ac [2]
1 | CCCCCCC/C(=N\OC(C)=O)c1ccc2c(c1)c1cc([N+](=O)[O-])ccc1n2CC(CC)CCCC (stereo not shown) [compound 48] | 42% | 5.0%
2 | CCCCCCCCCCCCn1c2ccc(/C(C)=N/OC(C)=O)cc2c2cc([N+](=O)[O-])ccc21 [compound 45] | 7.2% | 0.4%
3 | CCCCC(CC)Cn1c2ccc(/C(Cc3ccccc3)=N/OC(C)=O)cc2c2cc([N+](=O)[O-])ccc21 (stereo not shown) [compound 51] | 13% | 1.5%
4 | C=CC(=O)OCCn1c2ccc(/C(CCCCCCCCCCC)=N/OC(C)=O)cc2c2cc([N+](=O)[O-])ccc21 [compound 20] | 3.7% | 0.16%
5 | CCOCCn1c2ccc(/C(C)=N/OC(C)=O)cc2c2cc([N+](=O)[O-])ccc21 [compound 7] | 2.4% | 0.38%
6 | CCCCCCCCCCC/C(=N\OC(C)=O)c1ccc2c(c1)c1cc([N+](=O)[O-])ccc1n2CC(CC)CCCC (stereo not shown) [compound 50] | 45% | 6.0%
7 | CCCCC(CC)Cn1c2ccc(/C(=N/OC(C)=O)c3ccc(C(C)(C)C)cc3)cc2c2cc([N+](=O)[O-])ccc21 (stereo not shown) [compound 53] | 24% | 5.0%
8 | CCn1c2ccc(/C(=N/OC(C)=O)c3ccc(OC(C)COC)cc3C)cc2c2cc([N+](=O)[O-])ccc21 (stereo not shown) [compound 33] | 27% | 5.1%
9 | CCCCC(CC)Cn1c2ccc(/C(=N/OC(C)=O)c3ccc(OCC)cc3OCC)cc2c2cc([N+](=O)[O-])ccc21 (stereo not shown) [compound 56] | 23% | 3.6%
10 | CCCCCCCCCCCCCCn1c2ccc(/C(C)=N/OC(C)=O)cc2c2cc([N+](=O)[O-])ccc21 [compound 46] | 5.0% | 0.5%
11 | CCCCC(CC)Cn1c2ccc(/C(=N/OC(C)=O)c3ccc(F)cc3C)cc2c2cc([N+](=O)[O-])ccc21 (stereo not shown) [compound 58] | 7.6% | 1.2%
12 | CCCCCCCCCCCCCCCCn1c2ccc(/C(C)=N/OC(C)=O)cc2c2cc([N+](=O)[O-])ccc21 [compound 47] | 5.3% | 0.3%
13 | CCn1c2ccc(/C(C)=N/OC(C)=O)cc2c2cc([N+](=O)[O-])ccc21 [compound 3] | 0.80% | 0.12%
14 | CCCCC(CC)Cn1c2ccc(/C(=N/OC(C)=O)c3ccccc3OCCOC)cc2c2cc([N+](=O)[O-])ccc21 (stereo not shown) [compound 55] | 3.2% | 1.2%
15 | CCn1c2ccc(/C(=N/OC(C)=O)c3ccc(OC(C)C)cc3OC(C)C)cc2c2cc([N+](=O)[O-])ccc21 [compound 57] | 12% | 2.4%
16 | CCCCCCCCn1c2ccc(/C(C)=N/OC(C)=O)cc2c2cc([N+](=O)[O-])ccc21 [compound 2] | 9.2% | 1.4%
17 | CCCCC(CC)Cn1c2ccc(/C(C)=N/OC(C)=O)cc2c2cc([N+](=O)[O-])ccc21 (stereo not shown) [Compound No. 1] | 18.9% | 4.1%
18 | COCC(C)OC(=O)Cn1c2ccc(/C(C)=N/OC(C)=O)cc2c2cc([N+](=O)[O-])ccc21 (stereo not shown) [compound 10] | 0.54% | 0.091%
19 | COCC(C)OC(=O)CCCCCn1c2ccc(/C(C)=N/OC(C)=O)cc2c2cc([N+](=O)[O-])ccc21 (stereo not shown) [compound 12] | 31% | 25%
20 | CCCCC(CC)Cn1c2ccc(/C(=N/OC(C)=O)c3ccc(OC(C)COC)cc3)cc2c2cc([N+](=O)[O-])ccc21 (stereo not shown) [Compound No. 54] | 14% | 20%
